In US20140309210A1, “INDAZOLE COMPOUNDS, COMPOSITIONS AND METHODS OF USE THEREOF” (Genentech, Inc., priority 2011, published 2014):

Target: T1, purified ITK (Invitrogen PV3875) (Homo sapiens, UniProt Q08881)
T1 construct: purchased Invitrogen PV3875
T1 sequence (Q08881 1-620): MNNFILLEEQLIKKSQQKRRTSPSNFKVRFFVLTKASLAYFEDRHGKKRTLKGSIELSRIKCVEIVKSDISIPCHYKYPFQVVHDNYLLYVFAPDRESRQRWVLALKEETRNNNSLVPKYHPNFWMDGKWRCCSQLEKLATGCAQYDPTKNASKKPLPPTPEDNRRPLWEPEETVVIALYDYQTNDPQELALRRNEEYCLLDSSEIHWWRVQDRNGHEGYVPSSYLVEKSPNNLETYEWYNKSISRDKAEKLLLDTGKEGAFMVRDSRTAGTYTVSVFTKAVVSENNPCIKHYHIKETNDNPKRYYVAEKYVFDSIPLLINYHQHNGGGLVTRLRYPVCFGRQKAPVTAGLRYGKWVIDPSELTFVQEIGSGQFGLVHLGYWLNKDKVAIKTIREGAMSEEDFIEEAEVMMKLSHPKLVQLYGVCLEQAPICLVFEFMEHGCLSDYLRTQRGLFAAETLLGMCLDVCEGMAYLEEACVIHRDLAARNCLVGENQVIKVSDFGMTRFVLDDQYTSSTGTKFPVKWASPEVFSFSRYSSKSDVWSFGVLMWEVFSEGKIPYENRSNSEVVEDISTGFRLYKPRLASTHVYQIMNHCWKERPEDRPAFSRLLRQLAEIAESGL
Experiment: ITK peptide phosphorylation assay (Caliper LabChip or LCMS)
Type: biochemical
Conditions: Table 1, Examples 141-279
Summary of the method: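 Purified human ITK peptide phosphorylation, quenched with EDTA (50 mM final) for Caliper LabChip separation or TCA (5% v/v final) for UPLC-MS/MS MRM quantification. Ki derived via Morrison tight-binding equation, corrected for competitive inhibition using ATP concentration relative to Km,app.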

| Ki | Structure (SMILES) |
| --- | --- |
| 114 nM | CS(=O)(=O)CCC(c1ccccc1)n1cc(NC(=O)c2n[nH]c3ccccc23)cn1 (stereo not drawn) [Example 277, N-[1-(3-methylsulfonyl-1-phenyl-propyl)pyrazol-4-yl]-1H-indazole-3-carboxamide] |
| 1.29 nM | CN(C)CCC(c1ccccc1)n1cc(NC(=O)c2n[nH]c3cc(-c4cn[nH]c4)cnc23)cn1 (stereo not drawn) [Example 278, N-[1-[3-(dimethylamino)-1-phenyl-propyl]pyrazol-4-yl]-6-(1H-pyrazol-4-yl)-1H-pyrazolo[4,3-b]pyridine-3-carboxamide] |
| 36.7 nM | CN(C)CCC(c1ccccc1)n1cc(NC(=O)c2n[nH]c3cc(-c4cn[nH]c4)cnc23)cn1 (stereo not drawn) [Example 279, N-[1-[3-(dimethylamino)-1-phenyl-propyl]pyrazol-4-yl]-6-(1H-pyrazol-4-yl)-1H pyrazolo[4,3-b]pyridine-3-carboxamide] |
